Earlier results, collected in patent publication US20200397766A1, “POROUS EMBOLIZATION MICROSPHERES COMPRISING DRUGS” (VAN RIJN BEHEER B.V., priority 2018, published 2020).

solubility in DMSO (DMSO): high solubility in DMSO
solubility in water (water): low solubility in water
SMILES: OCCN(CCO)c1nc(N2CCCCC2)c2nc(N(CCO)CCO)nc(N3CCCCC3)c2n1 [Dipyridamole, dipyridamole]
